Results reported in patent EP0397914A1 (priority 1989, dated 1990).
Where “and” joins values, the source holds several entries; their conditions need not be identical. Equal values may be shown once.

How the values were obtained:
[1] = molecular target: M toxin of A type toxins produced by Clostridium botulinum (Clostridium botulinum, UniProt P0DPI0); settings: in vivo, iv
[2] = molecular target: S toxin of A type toxins produced by Clostridium botulinum (Clostridium botulinum, UniProt P0DPI0); settings: in vivo, iv
[3] = Acute toxicity (LD50) in mice; settings: mouse, in vivo, ip; intraperitoneal injection, male ICR mice (6 weeks old), after one week; read-out: LD₅₀
Procedure: Epigallocatechin gallate was orally administered to male ICR mice (6 weeks old). LD₅₀ of them after one week was 2314 mg/kg. In another case, epigallocatechin gallate was administered to male ICR mice (6 weeks old) by intraperitoneal injection. LD₅₀ of them after one week was 150 mg/kg.

SMILES	Remaining toxic activity (%) [1]	Remaining toxic activity (%) [2]	LD50 at 168 h [3] [mg/kg]
O=c1c(O)cc([C@H]2Oc3cc(O)cc(O)c3C[C@H]2O)cc2c([C@H]3Oc4cc(O)cc(O)c4C[C@H]3O)cc(O)c(O)c12 [free theaflavin]	9.9% and 7.6%	4.4% and 6.1%	–
O=C(O[C@@H]1Cc2c(O)cc(O)cc2O[C@@H]1c1cc(O)c(O)c(O)c1)c1cc(O)c(O)c(O)c1 [epigallocatechin gallate, (-) epigallocatechin gallate]	–	–	150
